Test results published in patent US10829473B2, “Modulators of the cystic fibrosis transmembrane conductance regulator protein and methods of use” (AbbVie Overseas S.Á.R.L., priority 2017, dated 2020).
Like-named read-outs stand apart in the source and are kept apart here. Marks after values point to notes of the source that are not given here.

Biological target: T1, F508delCFTR (Homo sapiens, UniProt P13569, DEL508-508)
T1 construct: expressed in transfected cells; host or cells: CFBE41o- human lung derived epithelial cells (CFBE41o-F508delCFTR-HRP), doxycycline-inducible
T1 sequence (P13569 with tags, fused parts or gaps DEL508-508): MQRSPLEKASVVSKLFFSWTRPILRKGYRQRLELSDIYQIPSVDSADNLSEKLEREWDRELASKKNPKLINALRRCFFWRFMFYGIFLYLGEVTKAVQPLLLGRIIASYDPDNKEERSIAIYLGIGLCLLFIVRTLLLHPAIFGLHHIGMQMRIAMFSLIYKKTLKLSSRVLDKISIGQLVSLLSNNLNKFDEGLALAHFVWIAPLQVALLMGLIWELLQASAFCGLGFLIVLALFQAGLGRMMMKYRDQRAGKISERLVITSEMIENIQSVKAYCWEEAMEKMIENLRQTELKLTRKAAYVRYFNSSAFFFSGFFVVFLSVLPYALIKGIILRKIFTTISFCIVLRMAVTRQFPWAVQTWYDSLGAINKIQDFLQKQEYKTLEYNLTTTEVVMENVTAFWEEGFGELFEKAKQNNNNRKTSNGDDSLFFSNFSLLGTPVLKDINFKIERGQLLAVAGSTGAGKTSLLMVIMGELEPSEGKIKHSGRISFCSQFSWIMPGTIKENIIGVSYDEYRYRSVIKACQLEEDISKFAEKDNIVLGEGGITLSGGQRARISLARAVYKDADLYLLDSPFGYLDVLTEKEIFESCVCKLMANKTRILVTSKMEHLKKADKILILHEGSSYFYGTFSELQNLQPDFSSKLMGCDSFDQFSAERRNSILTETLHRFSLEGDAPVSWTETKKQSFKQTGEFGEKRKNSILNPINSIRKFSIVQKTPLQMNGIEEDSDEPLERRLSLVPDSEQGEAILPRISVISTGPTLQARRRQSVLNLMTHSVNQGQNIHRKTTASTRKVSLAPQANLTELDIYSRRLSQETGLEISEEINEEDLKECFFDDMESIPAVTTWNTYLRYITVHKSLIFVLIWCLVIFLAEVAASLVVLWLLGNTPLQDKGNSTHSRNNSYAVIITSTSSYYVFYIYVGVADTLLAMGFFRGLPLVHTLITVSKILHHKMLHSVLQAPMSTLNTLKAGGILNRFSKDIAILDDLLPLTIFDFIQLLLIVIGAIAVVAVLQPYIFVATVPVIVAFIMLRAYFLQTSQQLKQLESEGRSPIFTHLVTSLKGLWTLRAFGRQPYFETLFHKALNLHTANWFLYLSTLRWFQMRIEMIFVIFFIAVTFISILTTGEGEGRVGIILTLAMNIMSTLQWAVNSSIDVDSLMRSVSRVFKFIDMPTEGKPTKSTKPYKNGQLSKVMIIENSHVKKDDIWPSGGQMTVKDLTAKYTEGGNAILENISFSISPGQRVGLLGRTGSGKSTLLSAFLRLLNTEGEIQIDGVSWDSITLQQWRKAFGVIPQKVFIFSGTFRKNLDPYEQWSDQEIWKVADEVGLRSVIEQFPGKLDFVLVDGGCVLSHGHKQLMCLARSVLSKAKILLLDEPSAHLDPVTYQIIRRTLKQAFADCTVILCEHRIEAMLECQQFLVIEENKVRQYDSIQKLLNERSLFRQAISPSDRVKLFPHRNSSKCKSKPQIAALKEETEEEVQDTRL
Assay: Cell Surface Expression-Horse Radish Peroxidase (CSE-HRP) Assay;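 on EC50 (with co-corrector): co-corrector chromenyl benzoic acid corrector at 2 or 3 µM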
Format: cell-based
Details: for Maximum % activity (with co-corrector) / Emax: maximum at any tested concentration; for Emax: read-out: Maximum % activity (without co-corrector)
Description: A cellular assay for measuring the F508delCFTR cell surface expression after correction with test compounds either without or with a co-corrector (2 μM of 3-[(2R,4R)-4-({[1-(2,2-difluoro-1,3-benzodioxol-5-yl)cyclopropyl]carbonyl}amino)-7-methoxy-3,4-dihydro-2H-chromen-2-yl]benzoic acid), was developed in human lung derived epithelial cell line (CFBE4lo−) (Veit G et al, (2012) Mol Biol Cell. 23(21): 4188-4202). The development was achieved by expressing the F508delCFTR mutation along with a horseradish peroxidase (HRP) in the fourth exofacial loop, and then measuring the HRP activity using luminescence readout from these cells, CFBE410-F508delCFTR-HRP, that were incubated overnight with the test corrector compounds, either without or with the co-corrector. For this primary assay, the CFBE410-F508delCFTR-HRP cells were plated in 384-well plates (Greiner Bio-one; Cat 781080) at 4,000 cells/well along with 0.5 μg/mL doxycycline to induce the F508delCFTR-HRP expression and further incubated at 37° C., 5% CO2 for 68-72 hours. The test compounds were then added either without or with a co-corrector at the required concentrations and further incubated for 18-24 hours at 33° C. The highest concentration tested was 20 μM or 30 μM (GI-1 to GIII-36) with an 8-point concentration response curve using a 3-fold dilution in both the test compound without or with the co-corrector. Three replicate plates were run to determine one EC50. All plates contained negative controls (dimethyl sulfoxide, DMSO) and positive control (2 μM or 3 μM (GI-1 to GIII-36) of 3-[(2R,4R)-4-({[1-(2,2-difluoro-1,3-benzodioxol-5-yl)cyclopropyl]carbonyl}amino)-7-methoxy-3,4-dihydro-2H-chromen-2-yl]benzoic acid) as well as on-plate concentration response of the positive control. Post incubation, the plates were washed 5× times with Dulbecco's phosphate buffered saline (DPBS), followed by the addition of the HRP substrate, luminol (50 4), and measuring the HRP activity using luminescence readout on EnVision® Multilabel Plate Reader (Perkin Elmer; product number 2104-0010). The raw counts from the experiment were analyzed using Accelrys® Assay Explorer v3.3.
Z′ greater than 0.5 was used as passing quality control criteria for the plates.
The Z′ is defined as: 1−[3*SDPositve Control+3*SDNegative Control/Absolute(MeanPositive Control−MeanNegative Control)] wherein “SD” is standard deviation.
The % activity measured at each of the 8 test concentrations of the test compound added either without or with a co-corrector (2 μM or 3 μM (GI-1 to GIII-36) of 3-[(2R,4R)-4-({[1-(2,2-difluoro-1,3-benzodioxol-5-yl)cyclopropyl]carbonyl}amino)-7-methoxy-3,4-dihydro-2H-chromen-2-yl]benzoic acid) was normalized to the on-plate positive control using the following formulae: % activity (Test compound without co-corrector)=[(test compound without co-corrector response DMSO response)/(positive control response DMSO response)]*100 % activity (Test compound with co-corrector)=[(test compound with co-corrector response DMSO response)/(positive control response DMSO response)]*100
The maximum % activity achieved for the test compound either without or with a co-corrector at any tested concentration is presented in Table 6 along with the respective EC50's calculated using the following general sigmoidal curve with variable Hill slope equation (described as Model 42 in the Accelrys® Assay Explorer v3.3 software): y=(a−d)/(1+(x/c)b)+d
General sigmoidal curve with concentration, response, top, bottom, EC50 and Hill slope. This model describes a sigmoidal curve with an adjustable baseline, a. The equation can be used to fit curves where response is either increasing or decreasing with respect to the independent variable, “x”.
“x” is a concentration of drug under test.
“a” is the maximum response, and “d” is the minimum response
“c” is the inflection point (EGO for the curve. That is, “y” is halfway between the lower and upper asymptotes when x=c.
“b” is the slope-factor or Hill coefficient. […]

[1] = test compound alone, without co-corrector, read-out: EC50 (without co-corrector)
[2] = with co-corrector, read-out: EC50 (with co-corrector)
[3] = test compound with co-corrector
[4] = test compound with co-corrector, read-out: EC50 (with co-corrector)
[5] = test compound without co-corrector
[6] = test compound without co-corrector, read-out: EC50 (without co-corrector)

Question: With `COC[C@@H](C)Oc1ccc(C)cc1C1(C(=O)NS(=O)(=O)c2cccc3ncccc23)CC1` [Example I-95, 1-(2-{[(2R)-1-methoxypropan-2-yl]oxy}-5-methylphenyl)-N-(quinoline-5-sulfonyl)cyclopropane-1-carboxamide] as the compound, how does the EC50 [1] read?
Answer: Its EC50 is less than 3 µM.

Question: And the “Maximum % activity (with co-corrector)” value (with co-corrector)?
Answer: The value was “+++ (≥350)”.

Question: And the EC50 [2]?
Answer: Its EC50 is less than 3 µM.

Question: What about the Emax (without co-corrector) of the same compound?
Answer: Its Emax is greater than 150%.

Question: With `COc1ccc(C2CCC2)cc1C1(C(=O)NS(=O)(=O)c2cccc3ncn(C)c23)CCC1` [Example I-24, 1-(5-cyclobutyl-2-methoxyphenyl)-N-(1-methyl-1H-benzimidazole-7-sulfonyl)cyclobutane-1-carboxamide] as the compound, how does the EC50 [1] read?
Answer: The EC50 was less than 3 µM.

Question: What about the “Maximum % activity (with co-corrector)” value (with co-corrector) of the same compound?
Answer: The value was “+++ (≥350)”.

Question: And the EC50 [2]?
Answer: Its EC50 is less than 3 µM.

Question: What about the Emax (without co-corrector) of the same compound?
Answer: Its Emax is greater than 150%.

Question: How did the “Maximum % activity (with co-corrector)” value [3] turn out when `Cc1cnc(N2CCCC2)c(C2(C(=O)NS(=O)(=O)c3cccc4ncccc34)CC2)c1` [GII-38, 1-[5-methyl-2-(pyrrolidin-1-yl)pyridin-3-yl]-N-(quinoline-5-sulfonyl)cyclopropane-1-carboxamide] was run?
Answer: The value was “+++ (≥350)”.

Question: What about the EC50 [4] of the same compound?
Answer: The EC50 was 3 to 10 µM.

Question: What about the Emax [5] of the same compound?
Answer: The Emax was greater than 150%.

Question: And the EC50 [6]?
Answer: Its EC50 is 3 to 10 µM.

Question: How did the EC50 [1] turn out when `COc1cccc(-c2cnn(C)c2)c1C1(C(=O)NS(=O)(=O)c2cccc3ncccc23)CC1` [Example III-122, 1-[2-methoxy-6-(1-methyl-1H-pyrazol-4-yl)phenyl]-N-(quinoline-5-sulfonyl)cyclopropane-1-carboxamide] was run?
Answer: The EC50 was 3 to 10 µM.

Question: And the “Maximum % activity (with co-corrector)” value (with co-corrector)?
Answer: The value was “+++ (≥350)”.

Question: And the EC50 [2]?
Answer: The EC50 was 3 to 10 µM.

Question: And the Emax (without co-corrector)?
Answer: The Emax was greater than 150%.

Question: Which results are given for `CCc1ccncc1C1(C(=O)NS(=O)(=O)c2cccc3ccccc23)CC1` [GII-20, 1-(4-ethylpyridin-3-yl)-N-(naphthalene-1-sulfonyl)cyclopropane-1-carboxamide]?
Answer: EC50 (with co-corrector) [3]: ++^a; Maximum % activity (with co-corrector) [3]: ++ (≥150 and <350); EC50 (without co-corrector) [5]: ++^a; Emax [5]: 50 to 150%

Question: What does the source list for `COc1ncc(C2CCC2)cc1C1(C(=O)NS(=O)(=O)c2cccc3nc(C)ccc23)CC1` [Example I-3, 1-(5-cyclobutyl-2-methoxypyridin-3-yl)-N-(2-methylquinoline-5-sulfonyl)cyclopropane-1-carboxamide]?
Answer: EC50 [1]: < 3 µM; Maximum % activity (with co-corrector) (with co-corrector): +++ (≥350); EC50 [2]: < 3 µM; Emax (without co-corrector): > 150%

Question: `Cc1ccc2c(S(=O)(=O)NC(=O)C3(c4cc(C(F)(F)F)cnc4N(C)C)CC3)cccc2n1` [Example I-72, 1-[2-(dimethylamino)-5-(trifluoromethyl)pyridin-3-yl]-N-(2-methylquinoline-5-sulfonyl)cyclopropane-1-carboxamide] was tested. Which EC50 [1] did it give?
Answer: The EC50 was 3 to 10 µM.

Question: What about the “Maximum % activity (with co-corrector)” value (with co-corrector) of the same compound?
Answer: Its value is “+++ (≥350)”.

Question: And the EC50 [2]?
Answer: Its EC50 is less than 3 µM.

Question: And the Emax (without co-corrector)?
Answer: The Emax was greater than 150%.

Question: With `CCOc1ccc(C)cc1C1(C(=O)NS(=O)(=O)c2cccc3[nH]ccc23)CC1` [II-85] as the compound, how does the EC50 [1] read?
Answer: The EC50 was less than 3 µM.

Question: What about the “Maximum % activity (with co-corrector)” value (with co-corrector) of the same compound?
Answer: Its value is “+++ (≥350)”.

Question: And the EC50 [2]?
Answer: Its EC50 is less than 3 µM.

Question: And the Emax (without co-corrector)?
Answer: The Emax was greater than 150%.

Question: `O=C(NS(=O)(=O)c1ccccc1)C1(c2ccc(Cl)cc2Cl)CC1` [Example III-3, N-(benzenesulfonyl)-1-(2,4-dichlorophenyl)cyclopropane-1-carboxamide] was tested. Which EC50 [1] did it give?
Answer: Its EC50 is 3 to 10 µM.

Question: And the “Maximum % activity (with co-corrector)” value (with co-corrector)?
Answer: The value was “+++ (≥350)”.

Question: What about the EC50 [2] of the same compound?
Answer: The EC50 was 3 to 10 µM.

Question: And the Emax (without co-corrector)?
Answer: The Emax was 50 to 150%.

Question: `CCc1cnc(OCCOC)c(C2(C(=O)NS(=O)(=O)c3cccc4ncccc34)CC2)c1` [Example GI-112, 1-[5-ethyl-2-(2-methoxyethoxy)pyridin-3-yl]-N-(quinoline-5-sulfonyl)cyclopropane-1-carboxamide] was tested. Which “Maximum % activity (with co-corrector)” value [3] did it give?
Answer: The value was “+++ (≥350)”.

Question: What about the EC50 [4] of the same compound?
Answer: The EC50 was less than 3 µM.

Question: What about the Emax [5] of the same compound?
Answer: The Emax was greater than 150%.

Question: And the EC50 [6]?
Answer: Its EC50 is 3 to 10 µM.

Question: What does the source list for `CCOc1ccc(C2(OC)CCC2)cc1C1(C(=O)NS(=O)(=O)c2cccc3nc(C)ccc23)CC1` [Example I-105, 1-[2-ethoxy-5-(1-methoxycyclobutyl)phenyl]-N-(2-methylquinoline-5-sulfonyl)cyclopropane-1-carboxamide]?
Answer: EC50 [1]: < 3 µM; Maximum % activity (with co-corrector) (with co-corrector): +++ (≥350); EC50 [2]: < 3 µM; Emax (without co-corrector): > 150%
